This note sets out measurements from BindingDB's records for patent US11787780 (Corcept Therapeutics, 2023).

Each structure is given as a SMILES string.

For this assay, the target named is T1, Glucocorticoid receptor (Homo sapiens, UniProt P04150).
T1 sequence (P04150 whole entry): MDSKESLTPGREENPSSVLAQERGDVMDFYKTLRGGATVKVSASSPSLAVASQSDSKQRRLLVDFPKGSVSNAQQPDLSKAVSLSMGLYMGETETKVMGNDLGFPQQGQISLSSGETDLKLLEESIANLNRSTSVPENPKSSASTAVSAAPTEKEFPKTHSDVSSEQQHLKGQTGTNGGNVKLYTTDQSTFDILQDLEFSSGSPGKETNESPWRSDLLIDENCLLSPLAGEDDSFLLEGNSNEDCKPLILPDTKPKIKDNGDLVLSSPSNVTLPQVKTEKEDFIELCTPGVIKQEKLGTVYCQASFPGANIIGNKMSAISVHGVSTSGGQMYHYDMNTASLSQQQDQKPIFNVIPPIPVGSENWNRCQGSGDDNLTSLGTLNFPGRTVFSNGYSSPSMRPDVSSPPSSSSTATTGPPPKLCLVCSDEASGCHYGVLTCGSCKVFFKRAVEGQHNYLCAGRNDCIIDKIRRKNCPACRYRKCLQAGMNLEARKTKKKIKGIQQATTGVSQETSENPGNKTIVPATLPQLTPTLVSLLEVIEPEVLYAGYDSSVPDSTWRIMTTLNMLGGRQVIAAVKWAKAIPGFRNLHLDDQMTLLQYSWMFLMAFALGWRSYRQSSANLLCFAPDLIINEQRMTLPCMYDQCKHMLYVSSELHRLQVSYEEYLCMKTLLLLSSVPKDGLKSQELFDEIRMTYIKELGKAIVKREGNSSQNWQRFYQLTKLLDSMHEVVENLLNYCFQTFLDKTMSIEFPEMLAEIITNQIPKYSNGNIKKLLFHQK
Put plainly: GR Binding Assay. As to the method:
Binding of test compounds to the glucocorticoid receptor (GR) is determined using a fluorescence polarisation (FP) assay utilising a recombinant ligand binding domain (LBD) of GR. The test compounds are assessed by their ability to displace a fluorescently tagged ligand and detection of the resulting decrease in fluorescence polarisation.
Compound `Cc1cc2c(cnn2-c2ccc(F)cc2)cc1C1(Cc2ccccc2)CC(O)N(Cc2ccccc2)C1=O` (stereo not drawn) [US11787780, Example 336] had an IC50 of 0.18 µM.
In the case of `CCCn1cc(S(=O)(=O)N2CCC(Cc3ccccn3)(c3cc4cnn(-c5ccc(F)cc5)c4cc3C)C2)cn1` (stereo not drawn) [US11787780, Example 152] it was 0.013 µM.
Under `Cc1cc2c(cnn2-c2ccc(=O)n(C)c2)cc1C1(Cc2ccccc2)CCN(S(=O)(=O)c2cnn(C(C)C)n2)C1` (stereo not drawn) [US11787780, Example 320] stands 0.012 µM.
